# In US20040224981A1, “Antibacterial methods and compositions” (priority 2003, published 2004):
# Where two headings read alike, the source gives them in different places.
# Legend:
# S. aureus = assay: MIC against S. aureus strains and clinical isolates (broth microdilution); type: cell-based, Staphylococcus aureus; details: for MIC90: read-out: MIC90; for MIC50: read-out: MIC50
# Procedure, shortened: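 Broth microdilution per NCCLS in cation-supplemented Mueller-Hinton broth, final inoculum 5×10^5 CFU/ml from 0.5 McFarland suspensions diluted 1:10. Trays incubated aerobically overnight with quality control strains each run. Checkerboard FIC index: ≦0.5 synergy, >0.5 to 4 additive/indifferent, >4.0 antagonism.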
# E. faecalis = assay: MIC against E. faecalis; type: cell-based; details: for MIC: Enterococcus faecalis, read-out: MIC
# S. pyogenes = assay: MIC against S. pyogenes; type: cell-based, Streptococcus pyogenes
# Method: The MRS inhibitor 4 alone and in combination with mupirocin (mupirocin salt and 1:1 combination) were tested against a collection of Gram-positive pathogens.
# S. pyogenes is also a significant skin pathogen and 48 recent clinical isolates were tested for their susceptibility to MRSi compound 5 alone (acetate) and in combination (1:1) with mupirocin (mupirocinate).
# S. epidermidis = assay: MIC against S. epidermidis; type: cell-based
# S. hemolyticus = assay: MIC against S. hemolyticus; type: cell-based
# [1] = tested on: MRS-resistant mutants of S. aureus; assay: Susceptibility (MIC) of MRS-resistant mutants of S. aureus; type: cell-based; details: Staphylococcus aureus
# Method: MRS-resistant mutants generated in vitro in either serial passage or spontaneous resistance development studies were evaluated for susceptibility to mupirocin alone and in a 1:1 combination with MRSi compound 5.
# [2] = Staphylococcus aureus, oxacillin-susceptible S. aureus, Oxa-S (20)
# [3] = Staphylococcus aureus, recent clinical isolates of S. aureus, All (62)
# [4] = recent clinical isolates of E. faecalis, ALL (28)
# [5] = 48 recent clinical isolates of S. pyogenes
compound,measurement,setting,value
"C/C(=C\C(=O)OCCCCCCCCC(=O)O)C[C@@H]1OC[C@H](C[C@@H]2O[C@H]2[C@@H](C)[C@H](C)O)[C@@H](O)[C@H]1O [Mupirocin, Pseudomonic acid A]",MIC90,"S. aureus; Staphylococcus aureus, oxacillin-resistant S. aureus, Oxa-R (42)",> 8 mg/L
same,MIC,"S. aureus; Staphylococcus aureus, oxacillin-resistant S. aureus, Oxa-R (42), read-out: MIC Mode",0.12 mg/L
same,MIC50,S. aureus; [2],0.12 mg/L
same,MIC90,S. aureus; [2],> 8 mg/L
same,MIC,"S. aureus; Staphylococcus aureus, oxacillin-susceptible S. aureus, Oxa-S (20), read-out: MIC Mode",0.12 mg/L
same,MIC50,S. aureus; [3],0.12 mg/L
same,MIC90,S. aureus; [3],> 8 mg/L
same,MIC,"S. aureus; Staphylococcus aureus, recent clinical isolates of S. aureus, All (62), read-out: MIC Mode",0.12 mg/L
same,MIC,"S. aureus; Table 12, S. aureus 25-670, high level mupirocin-resistant, agent alone",>128 8 g/mL
same,MIC50,"E. faecalis; E. faecalis, Van-R(11)",> 8 mg/L
same,MIC90,"E. faecalis; E. faecalis, Van-R(11)",> 8 mg/L
same,Mode (MIC),"E. faecalis; E. faecalis, Van-R(11)",> 8 mg/L
same,MIC50,"E. faecalis; E. faecalis, Van-S (16)",> 8 mg/L
same,MIC90,"E. faecalis; E. faecalis, Van-S (16)",> 8 mg/L
same,Mode (MIC),"E. faecalis; E. faecalis, Van-S (16)",> 8 mg/L
same,MIC,"E. faecalis; ATCC29212, Table 2, E. faecalis ATCC 29212",8 mg/L
same,MIC,"E. faecalis; ATCC29212, Table 3, E. faecalis ATCC 29212",8 mg/L
same,MIC,"E. faecalis; ATCC29212, Table 4, E. faecalis ATCC 29212",> 8 mg/L
same,MIC,"E. faecalis; ATCC 51299 / VRE, Table 8, E. faecalis ATCC 51299 (VRE)",32 mg/L
same,MIC,"E. faecalis; Table 2, E. faecalis 1",8 mg/L
same,MIC,"E. faecalis; Table 2, E. faecalis 7",8 mg/L
same,MIC,"E. faecalis; Table 3, E. faecalis 1",8 mg/L
same,MIC,"E. faecalis; Table 3, E. faecalis 7",8 mg/L
same,MIC,"E. faecalis; Table 4, E. faecalis 1",> 8 mg/L
same,MIC,"E. faecalis; Table 4, E. faecalis 7",> 8 mg/L
same,MIC,"E. faecalis; Table 8, E. faecalis 1",32 mg/L
same,MIC,"E. faecalis; Table 8, E. faecalis 7",64 mg/L
same,MIC50,E. faecalis; [4],> 8 mg/L
same,MIC90,E. faecalis; [4],> 8 mg/L
same,Mode (MIC),E. faecalis; [4],> 8 mg/L
same,MIC50,S. pyogenes; [5],0.12 mg/L
same,MIC90,S. pyogenes; [5],0.25 mg/L
same,Mode (MIC),S. pyogenes; [5],0.12 mg/L
same,MIC Range,"S. pyogenes; 48 recent clinical isolates of S. pyogenes, in µg/mL",0.03-0.5
same,MIC,"S. pyogenes; Streptococcus pyogenes, ATCC19615, Table 2, S. pyogenes ATCC 19615, read-out: MIC",0.12 mg/L
same,MIC,"S. pyogenes; Streptococcus pyogenes, Table 2, S. pyogenes MB143 (macrolide rest.), read-out: MIC",0.12 mg/L
same,MIC,"S. pyogenes; Table 3, S. pyogenes ATCC 19615",0.12 mg/L
same,MIC,"S. pyogenes; Table 3, S. pyogenes MB143 (macrolide rest.)",0.12 mg/L
same,MIC,"S. pyogenes; Table 4, S. pyogenes ATCC 19615",0.12 mg/L
same,MIC,"S. pyogenes; Table 4, S. pyogenes MB000143",0.12 mg/L
same,MIC,"S. epidermidis; Staphylococcus epidermidis, Table 2, S. epidermidis NRS6, read-out: MIC",> 8 mg/L
same,MIC,"S. epidermidis; Staphylococcus epidermidis, Table 2, S. epidermidis NRS7, read-out: MIC",8 mg/L
same,MIC,"S. epidermidis; Staphylococcus epidermidis, Table 2, S. epidermidis NRS8, read-out: MIC",> 8 mg/L
same,MIC,"S. epidermidis; Table 3, S. epidermidis NRS6",>8 mg/L
same,MIC,"S. epidermidis; Table 3, S. epidermidis NRS7",8 mg/L
same,MIC,"S. epidermidis; Table 3, S. epidermidis NRS8",>8 mg/L
same,MIC,"S. epidermidis; Table 4, S. epidermidis NRS6",>8 mg/L
same,MIC,"S. epidermidis; Table 4, S. epidermidis NRS7",8 mg/L
same,MIC,"S. epidermidis; Table 4, S. epidermidis NRS8",>8 mg/L
same,MIC,"S. hemolyticus; Table 2, S. hemolyticus NRS50, read-out: MIC",0.12 mg/L
same,MIC,"S. hemolyticus; Table 2, S. hemolyticus NRS116, read-out: MIC",0.25 mg/L
same,MIC,"S. hemolyticus; Table 3, S. hemolyticus NRS50",0.12 mg/L
same,MIC,"S. hemolyticus; Table 3, S. hemolyticus NRS116",0.25 mg/L
same,MIC,"S. hemolyticus; Table 4, S. hemolyticus NRS50",0.12 mg/L
same,MIC,"S. hemolyticus; Table 4, S. hemolyticus NRS116",0.25 mg/L
same,MIC,"[1]; ATCC29213, S. aureus ATCC 29213, metS wild-type",0.12 mg/L
same,MIC,"[1]; S. aureus SP-9B5, metS I57N, V296F",0.5 mg/L
same,MIC,"[1]; S. aureus SP-21A, metS A77V",1 mg/L
same,MIC,"[1]; read-out: MICs ranging, all the MRS-resistant mutants",0.12 to 1 mg/L
